Where two headings read alike, the source gives them in different places.
Assays:
Test in all cases: HotSpot kinase profiling
Type in all cases: biochemical
ALK = molecular target: T1, ALK (Homo sapiens, UniProt Q9UM73)
T1 construct: purchased Reaction Biology Corp
Method: (§1) The binding assay system for profiling kinase activity were based upon HotSpot technology (Reaction Biology Corp.; Malvern, Pa., USA) and utilized radio-isotope-based P81 filtration. […] Substrates for the various kinases tested against Compound 2 (substrate information available on the Reaction Biology Corp. website) were prepared fresh daily in Reaction Buffer. Any required cofactors were then added to the substrate solution. The identification and selection of the appropriate cofactor for each kinase is within the ability of a person skilled in the art. See, for example, Handbook of Assay Development in Drug Discovery, Ed. Lisa K. Minor, 2006: CRC Press, Boca Raton, Fla.; Gao et al., “A broad activity screen in support of a chemogenomic map for kinase signalling research and drug discovery,” Biochem J. 2013, 451(2): 313-28; and Eglen et al., “Drug discovery and the human kinome: Recent trends,” Pharmacology & Therapeutics 2011, 130(2): 144-156. The kinase was then added to the substrate solution and gently mixed. […] This was followed by incubation at room temperature for 2 h. The reaction was terminated and any unreacted phosphate was washed away using 0.1% phosphoric acid prior to detection utilizing a proprietary technology. […] DMSO was used as the negative control.
(§2) Percent inhibition was expressed as an average where the assay was performed more than once, e.g., in duplicate.

NEK2 = molecular target: T2, NEK2 (Homo sapiens, UniProt P51955)
T2 construct: purchased Reaction Biology Corp
T2 sequence (P51955 1-445): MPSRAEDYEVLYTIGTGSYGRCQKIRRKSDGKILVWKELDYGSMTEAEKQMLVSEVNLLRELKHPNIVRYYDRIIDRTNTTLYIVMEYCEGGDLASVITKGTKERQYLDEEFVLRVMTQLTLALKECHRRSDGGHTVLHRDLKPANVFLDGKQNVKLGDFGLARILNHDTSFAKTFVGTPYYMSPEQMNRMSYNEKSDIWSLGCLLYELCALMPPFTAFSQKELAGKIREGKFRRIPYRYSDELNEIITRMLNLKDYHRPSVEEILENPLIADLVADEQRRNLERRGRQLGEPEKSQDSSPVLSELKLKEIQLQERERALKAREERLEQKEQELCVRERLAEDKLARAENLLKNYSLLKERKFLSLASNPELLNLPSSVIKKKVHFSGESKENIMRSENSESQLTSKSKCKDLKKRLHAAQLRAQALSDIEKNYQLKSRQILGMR
Method: as §1, §2

CDK6/cyclin D1 = molecular target: T3, CDK6/cyclin D1 (Homo sapiens, UniProt Q00534)
T3 construct: purchased Reaction Biology Corp
T3 sequence (Q00534 whole entry): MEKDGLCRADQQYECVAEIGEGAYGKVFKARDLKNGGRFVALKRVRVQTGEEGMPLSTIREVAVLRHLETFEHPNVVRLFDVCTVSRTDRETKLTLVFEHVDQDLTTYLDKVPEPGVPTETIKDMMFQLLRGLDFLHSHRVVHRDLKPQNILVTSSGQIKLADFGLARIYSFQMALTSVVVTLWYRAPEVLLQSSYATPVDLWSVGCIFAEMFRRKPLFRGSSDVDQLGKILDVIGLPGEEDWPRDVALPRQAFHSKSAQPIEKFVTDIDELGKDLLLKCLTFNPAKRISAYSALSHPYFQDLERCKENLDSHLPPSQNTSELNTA
T3 sequence (P24385 whole entry partner): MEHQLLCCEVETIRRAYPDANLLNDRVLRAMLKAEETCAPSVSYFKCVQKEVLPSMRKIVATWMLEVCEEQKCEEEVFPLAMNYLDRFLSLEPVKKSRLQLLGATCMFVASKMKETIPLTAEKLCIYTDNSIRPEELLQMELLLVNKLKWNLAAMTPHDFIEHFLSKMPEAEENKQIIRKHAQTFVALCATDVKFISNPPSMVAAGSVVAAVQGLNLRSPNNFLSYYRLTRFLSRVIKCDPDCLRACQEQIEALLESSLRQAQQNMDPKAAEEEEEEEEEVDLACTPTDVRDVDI
Method: as §1, §2

FYN = molecular target: T4, FYN (Homo sapiens, UniProt P06241)
T4 construct: purchased Reaction Biology Corp
T4 sequence (P06241 whole entry): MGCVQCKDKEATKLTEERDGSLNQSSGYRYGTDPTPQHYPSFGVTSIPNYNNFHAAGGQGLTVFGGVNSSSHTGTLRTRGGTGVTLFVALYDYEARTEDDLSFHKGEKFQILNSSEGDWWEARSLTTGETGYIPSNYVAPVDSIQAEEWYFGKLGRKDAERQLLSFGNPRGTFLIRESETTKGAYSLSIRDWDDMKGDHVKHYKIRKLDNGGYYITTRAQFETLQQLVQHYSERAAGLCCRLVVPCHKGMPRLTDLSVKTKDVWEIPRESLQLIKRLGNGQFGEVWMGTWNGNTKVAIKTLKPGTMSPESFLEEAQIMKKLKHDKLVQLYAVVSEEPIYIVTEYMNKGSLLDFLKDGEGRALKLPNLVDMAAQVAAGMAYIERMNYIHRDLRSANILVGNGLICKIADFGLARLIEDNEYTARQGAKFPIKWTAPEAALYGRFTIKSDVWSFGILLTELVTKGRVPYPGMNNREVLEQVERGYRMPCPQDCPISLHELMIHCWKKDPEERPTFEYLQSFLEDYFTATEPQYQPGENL
Method: as §1, §2

MLK3/MAP3K11 = molecular target: T5, MLK3/MAP3K11 (Homo sapiens, UniProt Q16584)
T5 construct: purchased Reaction Biology Corp
T5 sequence (Q16584 whole entry): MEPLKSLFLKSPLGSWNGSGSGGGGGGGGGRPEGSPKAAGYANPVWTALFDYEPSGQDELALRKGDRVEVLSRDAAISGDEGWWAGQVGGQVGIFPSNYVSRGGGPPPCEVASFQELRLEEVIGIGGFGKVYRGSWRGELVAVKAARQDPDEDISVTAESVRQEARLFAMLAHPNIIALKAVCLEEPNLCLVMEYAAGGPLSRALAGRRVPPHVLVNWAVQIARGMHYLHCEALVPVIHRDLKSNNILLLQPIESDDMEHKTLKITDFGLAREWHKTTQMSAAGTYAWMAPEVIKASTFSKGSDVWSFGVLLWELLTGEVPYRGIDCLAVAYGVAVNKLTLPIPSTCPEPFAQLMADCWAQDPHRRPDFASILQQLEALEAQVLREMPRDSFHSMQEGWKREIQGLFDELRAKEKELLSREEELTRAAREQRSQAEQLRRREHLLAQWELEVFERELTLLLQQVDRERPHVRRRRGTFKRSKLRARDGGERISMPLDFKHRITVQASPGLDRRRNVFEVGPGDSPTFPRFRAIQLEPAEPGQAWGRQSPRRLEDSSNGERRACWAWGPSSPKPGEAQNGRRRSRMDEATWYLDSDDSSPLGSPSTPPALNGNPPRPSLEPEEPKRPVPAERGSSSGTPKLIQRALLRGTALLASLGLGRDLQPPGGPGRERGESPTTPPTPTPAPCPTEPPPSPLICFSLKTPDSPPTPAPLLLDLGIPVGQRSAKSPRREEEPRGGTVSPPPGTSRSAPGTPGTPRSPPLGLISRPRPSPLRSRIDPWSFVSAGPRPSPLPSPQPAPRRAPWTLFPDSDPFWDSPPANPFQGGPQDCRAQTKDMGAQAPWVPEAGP
Method: as §1, §2

ALK3/BMPR1A = molecular target: T6, ALK3/BMPR1A (Homo sapiens, UniProt P36894)
T6 construct: purchased Reaction Biology Corp
T6 sequence (P36894 24-532): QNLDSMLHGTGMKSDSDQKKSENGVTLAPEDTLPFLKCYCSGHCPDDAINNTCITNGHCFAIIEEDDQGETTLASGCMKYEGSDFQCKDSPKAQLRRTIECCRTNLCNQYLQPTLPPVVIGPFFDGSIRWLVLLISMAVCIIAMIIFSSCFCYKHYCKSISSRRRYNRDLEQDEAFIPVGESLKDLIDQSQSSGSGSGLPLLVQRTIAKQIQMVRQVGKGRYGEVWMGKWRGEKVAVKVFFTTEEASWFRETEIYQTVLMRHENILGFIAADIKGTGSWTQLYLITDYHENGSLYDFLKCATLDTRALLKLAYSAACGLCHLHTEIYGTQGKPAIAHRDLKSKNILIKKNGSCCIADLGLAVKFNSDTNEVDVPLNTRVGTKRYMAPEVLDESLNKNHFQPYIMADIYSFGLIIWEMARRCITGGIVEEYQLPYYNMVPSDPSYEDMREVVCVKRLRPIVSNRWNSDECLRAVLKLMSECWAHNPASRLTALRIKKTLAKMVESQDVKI
Method: as §1, §2

STK22D/TSSK1 = molecular target: T7, STK22D/TSSK1 (Homo sapiens, UniProt Q9BXA7)
T7 construct: purchased Reaction Biology Corp
T7 sequence (Q9BXA7 1-367): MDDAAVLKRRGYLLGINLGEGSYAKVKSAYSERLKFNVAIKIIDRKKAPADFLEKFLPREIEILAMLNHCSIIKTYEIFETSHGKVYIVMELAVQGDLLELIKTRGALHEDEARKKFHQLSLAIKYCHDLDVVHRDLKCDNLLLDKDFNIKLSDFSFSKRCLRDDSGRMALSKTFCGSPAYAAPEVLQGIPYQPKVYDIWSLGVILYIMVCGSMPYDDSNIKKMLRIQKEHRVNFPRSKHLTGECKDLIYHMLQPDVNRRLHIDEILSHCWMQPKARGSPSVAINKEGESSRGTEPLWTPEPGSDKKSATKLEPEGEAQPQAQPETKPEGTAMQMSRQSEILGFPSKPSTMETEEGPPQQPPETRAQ
Method: as §1, §2

TSSK2 = molecular target: T8, TSSK2 (Homo sapiens, UniProt Q96PF2)
T8 construct: purchased Reaction Biology Corp
T8 sequence (Q96PF2 1-358): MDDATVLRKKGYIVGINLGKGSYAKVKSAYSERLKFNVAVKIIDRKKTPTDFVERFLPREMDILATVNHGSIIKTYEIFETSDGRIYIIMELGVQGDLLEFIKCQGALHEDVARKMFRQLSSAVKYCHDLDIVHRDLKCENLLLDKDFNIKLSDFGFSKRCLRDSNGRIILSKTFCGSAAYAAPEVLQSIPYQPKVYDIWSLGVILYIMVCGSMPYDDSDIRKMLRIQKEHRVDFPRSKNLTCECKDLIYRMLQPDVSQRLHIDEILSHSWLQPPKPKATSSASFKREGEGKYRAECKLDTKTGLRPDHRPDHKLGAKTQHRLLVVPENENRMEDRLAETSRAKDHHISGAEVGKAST
Method: as §1, §2

[1] = read-out: % Enzyme Activity (relative to DMSO controls) Run 1
[2] = read-out: % Enzyme Activity (relative to DMSO controls) Run 2

T1 sequence (Q9UM73 19-1620): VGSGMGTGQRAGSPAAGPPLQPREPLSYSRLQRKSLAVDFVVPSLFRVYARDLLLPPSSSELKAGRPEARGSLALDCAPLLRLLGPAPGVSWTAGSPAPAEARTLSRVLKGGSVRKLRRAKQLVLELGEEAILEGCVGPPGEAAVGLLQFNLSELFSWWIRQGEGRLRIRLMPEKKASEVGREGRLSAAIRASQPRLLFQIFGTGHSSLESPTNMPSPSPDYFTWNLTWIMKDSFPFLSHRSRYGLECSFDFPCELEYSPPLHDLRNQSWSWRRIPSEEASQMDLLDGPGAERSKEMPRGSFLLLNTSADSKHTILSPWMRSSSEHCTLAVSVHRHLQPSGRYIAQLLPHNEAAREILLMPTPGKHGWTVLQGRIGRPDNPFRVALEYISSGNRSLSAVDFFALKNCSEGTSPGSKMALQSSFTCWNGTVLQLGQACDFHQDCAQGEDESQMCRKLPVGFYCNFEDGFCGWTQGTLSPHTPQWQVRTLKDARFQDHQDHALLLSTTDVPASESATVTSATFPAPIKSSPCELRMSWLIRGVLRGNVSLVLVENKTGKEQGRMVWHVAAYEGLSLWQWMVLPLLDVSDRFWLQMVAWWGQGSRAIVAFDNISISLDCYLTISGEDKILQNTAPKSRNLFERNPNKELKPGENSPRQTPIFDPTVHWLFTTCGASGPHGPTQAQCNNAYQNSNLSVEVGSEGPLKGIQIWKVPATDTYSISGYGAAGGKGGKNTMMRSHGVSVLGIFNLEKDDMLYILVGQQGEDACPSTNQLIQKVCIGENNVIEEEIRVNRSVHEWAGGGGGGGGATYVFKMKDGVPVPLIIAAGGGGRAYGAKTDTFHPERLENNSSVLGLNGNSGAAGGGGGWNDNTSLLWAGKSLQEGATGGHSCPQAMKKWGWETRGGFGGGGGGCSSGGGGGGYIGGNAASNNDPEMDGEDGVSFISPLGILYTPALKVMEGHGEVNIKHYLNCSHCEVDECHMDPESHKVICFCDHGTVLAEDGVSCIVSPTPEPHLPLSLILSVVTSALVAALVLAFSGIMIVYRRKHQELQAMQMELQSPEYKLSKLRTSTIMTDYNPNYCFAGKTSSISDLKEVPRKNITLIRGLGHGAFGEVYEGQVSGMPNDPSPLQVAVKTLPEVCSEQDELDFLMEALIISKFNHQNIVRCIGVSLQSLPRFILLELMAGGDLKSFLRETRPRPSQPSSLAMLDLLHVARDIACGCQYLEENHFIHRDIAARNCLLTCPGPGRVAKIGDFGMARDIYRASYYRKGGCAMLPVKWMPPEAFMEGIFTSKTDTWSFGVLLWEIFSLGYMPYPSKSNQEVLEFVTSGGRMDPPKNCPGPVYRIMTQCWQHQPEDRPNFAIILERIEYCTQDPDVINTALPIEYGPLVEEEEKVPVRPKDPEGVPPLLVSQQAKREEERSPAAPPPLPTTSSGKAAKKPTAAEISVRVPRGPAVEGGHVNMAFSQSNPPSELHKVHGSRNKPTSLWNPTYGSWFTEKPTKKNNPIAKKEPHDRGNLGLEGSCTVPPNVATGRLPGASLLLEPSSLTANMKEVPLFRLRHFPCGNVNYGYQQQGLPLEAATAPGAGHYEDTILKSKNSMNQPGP

**Q.** For `C=CC(=O)Nc1cccc(Nc2nc(Nc3ccc(OCCOC)c(F)c3)ncc2F)c1` [Compound 2], which inhibition at 3 µM (ALK) is on record?
**A.** Its inhibition at 3 µM is 16.9%.

**Q.** What about the remaining activity at 3 µM (ALK; [1]) of the same compound?
**A.** The remaining activity at 3 µM was 82.5%.

**Q.** And the remaining activity at 3 µM (ALK; [2])?
**A.** Its remaining activity at 3 µM is 83.6%.

**Q.** And the inhibition at 3 µM (NEK2)?
**A.** Its inhibition at 3 µM is -4.44%.

**Q.** What about the remaining activity at 3 µM (NEK2; [1]) of the same compound?
**A.** Its remaining activity at 3 µM is 102%.

**Q.** What about the remaining activity at 3 µM (NEK2; [2]) of the same compound?
**A.** The remaining activity at 3 µM was 107%.

**Q.** What about the inhibition at 3 µM (CDK6/cyclin D1) of the same compound?
**A.** The inhibition at 3 µM was -0.92%.

**Q.** What about the remaining activity at 3 µM (CDK6/cyclin D1; [1]) of the same compound?
**A.** Its remaining activity at 3 µM is 101%.

**Q.** And the remaining activity at 3 µM (CDK6/cyclin D1; [2])?
**A.** Its remaining activity at 3 µM is 100%.

**Q.** What about the inhibition at 3 µM (FYN) of the same compound?
**A.** Its inhibition at 3 µM is 18.5%.

**Q.** What about the remaining activity at 3 µM (FYN; [1]) of the same compound?
**A.** The remaining activity at 3 µM was 81.1%.

**Q.** What about the remaining activity at 3 µM (FYN; [2]) of the same compound?
**A.** Its remaining activity at 3 µM is 81.8%.

**Q.** What about the inhibition at 3 µM (MLK3/MAP3K11) of the same compound?
**A.** The inhibition at 3 µM was 73.4%.

**Q.** What about the remaining activity at 3 µM (MLK3/MAP3K11; [1]) of the same compound?
**A.** The remaining activity at 3 µM was 27.9%.

**Q.** What about the remaining activity at 3 µM (MLK3/MAP3K11; [2]) of the same compound?
**A.** Its remaining activity at 3 µM is 25.2%.

**Q.** And the inhibition at 3 µM (ALK3/BMPR1A)?
**A.** The inhibition at 3 µM was -4.41%.

**Q.** And the remaining activity at 3 µM (ALK3/BMPR1A; [1])?
**A.** Its remaining activity at 3 µM is 104%.

**Q.** What about the remaining activity at 3 µM (ALK3/BMPR1A; [2]) of the same compound?
**A.** The remaining activity at 3 µM was 105%.

**Q.** And the inhibition at 3 µM (STK22D/TSSK1)?
**A.** Its inhibition at 3 µM is 11.1%.

**Q.** And the remaining activity at 3 µM (STK22D/TSSK1; [1])?
**A.** Its remaining activity at 3 µM is 88%.

**Q.** And the remaining activity at 3 µM (STK22D/TSSK1; [2])?
**A.** Its remaining activity at 3 µM is 89.7%.

**Q.** And the inhibition at 3 µM (TSSK2)?
**A.** Its inhibition at 3 µM is 3.36%.

**Q.** What about the remaining activity at 3 µM (TSSK2; [1]) of the same compound?
**A.** Its remaining activity at 3 µM is 97%.

**Q.** And the remaining activity at 3 µM (TSSK2; [2])?
**A.** The remaining activity at 3 µM was 96.3%.

— patent US9492471B2, “Methods of treating a disease or disorder associated with Bruton'S Tyrosine Kinase” (Celgene Avilomics Research, Inc., priority 2013, dated 2016)
